Data published in patent publication US20240033278A9, “CONJUGATE GROUP AND CONJUGATE” (MEDSHINE DISCOVERY INC., priority 2020, published 2024).

Target: T1, human-derived anti-asialoglycoprotein receptors (ASGPR) (Homo sapiens, UniProt P07306)
T1 construct: purchased Sino Biological 10773-H07H
T1 sequence (P07306 1-291): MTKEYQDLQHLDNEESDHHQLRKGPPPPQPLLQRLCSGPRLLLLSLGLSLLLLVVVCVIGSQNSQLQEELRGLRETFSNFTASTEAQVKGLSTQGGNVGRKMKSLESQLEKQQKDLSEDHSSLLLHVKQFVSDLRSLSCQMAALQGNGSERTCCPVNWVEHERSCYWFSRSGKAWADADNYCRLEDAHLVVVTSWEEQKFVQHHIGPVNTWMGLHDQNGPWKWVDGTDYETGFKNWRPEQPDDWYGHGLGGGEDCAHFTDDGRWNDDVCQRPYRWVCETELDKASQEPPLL
Test: Binding affinity of the compound to human-derived ASGPR by surface plasmon resonance (SPR)
Protocol: Assay Example 1. Test of the Binding Affinity of the Compound to Human-Derived […]
The binding affinity of the compound to human-derived […] (ASGPR) was tested by surface plasmon resonance (SPR) technique, and the kinetic KD value of the compound was used as an indicator to evaluate the binding affinity of the compound to ASGPR, thereby reflecting the ability of the compound to specifically target hepatocytes for delivery of nucleic acid molecules.
Asialoglycoprotein Receptor Protein, Mouse, Recombinant (His Tag), Sino biological-50083-M07H-50 μg; Asialoglycoprotein Receptor Protein, Human, Recombinant (His Tag), Sino biological-10773-H07H-50 μg
3.1 The two proteins were respectively dissolved in 1×PBS to obtain a solution of 0.25 mg/mL, and the compound to be tested was dissolved in DMSO. The running buffer (10 mM HEPES, 150 mM NaCl, 0.05% Tween 20, 50 mM CaCl2, 50 μM EDTA) was prepared and filtered through a 0.22 μm membrane.
3.2 The NiHC 1500M Chip was docked into a biacore, and the system was switched to a running buffer.
3.3 Protein labeling: The chip was first treated with 350 mM EDTA at 30 μl/min for 5 min, rinsed with running buffer for 2 min, and then bound with 40 mM NiCl2 at 30 μl/min for 2 min. A protein diluted to 5 μg/mL with running buffer was then labeled on the chip at a flow rate of 10 μl/min for a final labeling amount of 1500-2000 RU.
3.4 The instrument system was switched to a running buffer containing 2% DMSO.
3.5 The compound with a starting concentration of 2 μM was serially diluted 2-fold with a running buffer containing 2% DMSO to obtain 9 concentrations. The final concentration of DMSO was 2%.
3.6 Testing: For each cycle, the compound was bound for 60 s and dissociated for 180 s at a flow rate of 50 μl/min. The compound was tested in order of concentration from low to high. Before the gradient testing of the compound, 4 cycles of blank (running buffer with 2% DMSO) were introduced, and solvent correction was performed with 1.5%-3.5% DMSO (6 concentrations).
The data were analyzed with Biacore Insight Evaluation Software, kinetics was analyzed with a 1:1 model, and affinity was analyzed with a steady state affinity model.

For COc1ccc(C(OC[C@@H]2C[C@@H](O)CN2C(=O)CCCCCCCCCCOCC(COCCC(=O)NCCCNC(=O)CCCCOC2OC(CO)C(O)C(O)C2NC(C)=O)(COCCC(=O)NCCCNC(=O)CCCCOC2OC(CO)C(O)C(O)C2NC(C)=O)NC(=O)CCC(=O)NCCCNC(=O)CCCCOC2OC(CO)C(O)C(O)C2NC(C)=O)(c2ccccc2)c2ccc(OC)cc2)cc1 (stereo partly drawn) [Compound D-01-M], the “binding affinity in the SPR assay (in words)” value (SPR) was “good binding affinity”, the Kd (SPR (Biacore 8k), kinetic KD, 1:1 model, His-tagged recombinant protein on NiHC 1500M chip) was 15.6 nM and the kon (SPR, association rate constant, 1:1 model, read-out: Ka) was 1.08e+06 M⁻¹ s⁻¹. It also gave a koff (SPR, dissociation rate constant, 1:1 model) of 0.0168 s⁻¹.
